One data set deals with T1, CYP2C19 (Homo sapiens, UniProt P33261).
T1 construct: 0.2–0.5 mg/mL pooled human liver microsomes; from tissue; host or cells: pooled human liver microsomes
The data set can be described thus: In vitro CYP inhibition, pooled human liver microsomes. Type of data set: in vitro ADME. The settings on record: substrate S-Mephentoin. The procedure: (§1) Next, we tested VZHE-039 at concentrations of 0.1 to 100 µM, considered to be biologically relevant unbound plasma concentrations, for possible CYP inhibition using pooled human liver microsomes and isozyme-specific probe substrates (CYP1A2, CYP2C8, CYP2C9, CYP2C19, CYP2D6, CYP3A4, CYP2B6)[55].
(§2) VZHE-039 was studied for its inhibitory potential of seven major drug metabolizing human cytochrome P450 (CYP) enzymes (CYP1A2, CYP2C8, CYP2C9, CYP2C19, CYP2D6, CYP3A4, CYP2B6) using pooled human liver microsomes as published previously[26],[55]. The probe substrates include tacrine (CYP1A2), amodiaquine (CYP2C8), tolbutamide (CYP2C9), mephenytoin (CYP2C19), dextromethorphan (CYP2D6), midazolam (CYP3A4), testosterone (CYP3A4), and bupropion (CYP2B6). […] Assay conditions were optimized for each human cytochrome P450 substrate. The optimized reaction mixtures (200 μL) contained a final concentration of 0.2–0.5 mg/mL pooled human liver microsomes, 2 mM NADPH in 100 mM potassium phosphate, pH 7.4 buffer with 5 mM MgCl2, and VZHE-039 concentration of 0.1 to 100 µM. The assays were performed in duplicate in 96-well plates at 37 °C for 10–60 min. The reaction was terminated with addition of methanol, followed by incubation at 4 °C for 10 min and centrifuged at 4 °C for 10 min. Effect of VZHE-039 on formation of the respective probe substrate metabolites (velnacrine, N‐desethylamodiaquine, 4-hydroxytolbutamide, 4′-hydroxymephenytoin, dextrophan, 1′-hydroxymidazolam, and 6β-hydroxtestosterone and hydroxybupropion) were determined using LC–MS/MS.

In a further data set the target is T2, CYP3A4 (Homo sapiens, UniProt P08684).
T2 construct: 0.2–0.5 mg/mL pooled human liver microsomes; from tissue; host or cells: pooled human liver microsomes
T2 sequence (P08684 whole entry): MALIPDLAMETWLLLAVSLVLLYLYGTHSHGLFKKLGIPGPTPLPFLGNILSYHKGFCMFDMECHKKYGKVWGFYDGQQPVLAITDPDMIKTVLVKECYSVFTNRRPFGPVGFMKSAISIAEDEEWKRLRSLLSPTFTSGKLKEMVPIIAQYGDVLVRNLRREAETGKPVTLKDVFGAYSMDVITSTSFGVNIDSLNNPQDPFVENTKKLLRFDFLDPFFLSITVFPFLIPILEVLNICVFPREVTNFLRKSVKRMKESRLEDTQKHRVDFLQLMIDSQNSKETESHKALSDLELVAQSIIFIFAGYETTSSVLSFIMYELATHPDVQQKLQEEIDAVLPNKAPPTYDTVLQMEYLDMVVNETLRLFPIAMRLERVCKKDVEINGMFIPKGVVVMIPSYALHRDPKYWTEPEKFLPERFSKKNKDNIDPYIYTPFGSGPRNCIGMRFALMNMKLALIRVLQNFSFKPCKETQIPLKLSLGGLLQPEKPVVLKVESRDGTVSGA
Described as above. Type of data set: in vitro ADME. As to the method: as §1, §2

For the next data set, the target named is T3, CYP2C9 (Homo sapiens, UniProt P11712).
T3 construct: 0.2–0.5 mg/mL pooled human liver microsomes; from tissue; host or cells: pooled human liver microsomes
T3 sequence (P11712 whole entry): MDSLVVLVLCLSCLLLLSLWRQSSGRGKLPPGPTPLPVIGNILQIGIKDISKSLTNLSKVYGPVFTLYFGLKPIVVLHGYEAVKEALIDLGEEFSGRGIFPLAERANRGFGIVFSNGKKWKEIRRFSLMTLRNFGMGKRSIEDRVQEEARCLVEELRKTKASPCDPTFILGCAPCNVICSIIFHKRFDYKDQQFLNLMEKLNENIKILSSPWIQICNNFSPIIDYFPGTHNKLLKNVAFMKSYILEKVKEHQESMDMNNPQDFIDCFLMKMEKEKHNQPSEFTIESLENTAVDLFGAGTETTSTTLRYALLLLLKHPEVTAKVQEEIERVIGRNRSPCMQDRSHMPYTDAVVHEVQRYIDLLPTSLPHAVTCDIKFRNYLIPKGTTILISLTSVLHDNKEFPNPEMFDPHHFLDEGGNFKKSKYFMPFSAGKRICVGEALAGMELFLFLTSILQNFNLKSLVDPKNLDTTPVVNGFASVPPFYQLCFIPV
Described as above. Type of data set: in vitro ADME. The note with it: substrate Tolbutamide. As to the method: as §1, §2

For another data set, the target named is T4, CYP2C8 (Homo sapiens, UniProt P10632).
T4 construct: 0.2–0.5 mg/mL pooled human liver microsomes; from tissue; host or cells: pooled human liver microsomes
T4 sequence (P10632 1-490): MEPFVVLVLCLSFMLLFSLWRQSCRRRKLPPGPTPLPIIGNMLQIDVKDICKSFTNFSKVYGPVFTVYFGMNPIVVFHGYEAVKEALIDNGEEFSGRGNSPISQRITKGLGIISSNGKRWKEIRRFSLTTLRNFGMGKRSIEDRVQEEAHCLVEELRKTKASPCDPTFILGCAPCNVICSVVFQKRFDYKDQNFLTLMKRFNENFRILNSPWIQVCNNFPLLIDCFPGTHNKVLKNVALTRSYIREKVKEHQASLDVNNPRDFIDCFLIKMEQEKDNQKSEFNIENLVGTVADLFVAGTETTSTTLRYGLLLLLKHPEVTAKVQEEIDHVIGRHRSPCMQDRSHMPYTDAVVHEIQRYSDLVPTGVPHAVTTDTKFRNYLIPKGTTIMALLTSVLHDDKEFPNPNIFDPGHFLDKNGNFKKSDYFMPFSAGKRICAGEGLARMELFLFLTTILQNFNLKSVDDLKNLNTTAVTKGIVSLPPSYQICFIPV
The data set is described as above. Type of data set: in vitro ADME. The settings on record: substrate Amodiaquine. The procedure: as §1, §2

The target in a further data set is T5, CYP2D6 (Homo sapiens, UniProt P10635).
T5 construct: 0.2–0.5 mg/mL pooled human liver microsomes; from tissue; host or cells: pooled human liver microsomes
T5 sequence (P10635 whole entry): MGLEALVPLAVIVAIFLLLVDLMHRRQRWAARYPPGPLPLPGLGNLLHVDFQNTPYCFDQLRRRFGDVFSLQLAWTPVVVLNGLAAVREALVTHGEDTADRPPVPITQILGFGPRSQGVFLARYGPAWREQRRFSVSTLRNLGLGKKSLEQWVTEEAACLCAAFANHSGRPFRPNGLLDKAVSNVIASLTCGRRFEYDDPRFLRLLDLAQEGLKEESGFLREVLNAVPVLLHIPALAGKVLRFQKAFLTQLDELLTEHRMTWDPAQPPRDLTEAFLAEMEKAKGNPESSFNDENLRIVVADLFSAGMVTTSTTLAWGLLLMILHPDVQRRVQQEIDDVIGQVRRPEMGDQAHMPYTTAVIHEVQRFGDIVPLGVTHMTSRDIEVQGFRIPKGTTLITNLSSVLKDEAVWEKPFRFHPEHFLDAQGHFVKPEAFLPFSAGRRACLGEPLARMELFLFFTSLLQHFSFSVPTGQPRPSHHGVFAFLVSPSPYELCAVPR
The data set is described as above. Type of data set: in vitro ADME. The note with it: substrate Dextromethorphan. As to the method: as §1, §2

The test system of the next data set is Caco-2 cell monolayers. Nature of the data set: Caco-2 bi-directional permeability. Type of data set: in vitro ADME, human. The settings on record: Caco-2 monolayers. As to the method:
(§3) Toxicity concerns remain an important issue in the use of aromatic aldehydes in treating a chronic disease, such as SCD, especially as it involves modification of a large amount of in vivo present Hb. […] We evaluated key metrics such as in vitro RBC partitioning and ADME/safety profiles, in order to glean important safety insights. […] We also assessed VZHE-039 at 10 μM for its bi-directional cell permeability using Caco-2 cell monolayers[53],[54].
(§4) Human epithelial colorectal adenocarcinoma (Caco-2) cells (HTB-37) were cultured in T75 flasks using complete Dulbecco’s Modified Eagles Medium (DMEM) containing 10% fetal bovine serum (FBS), 1% glutamine, 1% penicillin and 1% streptomycin, at 37 °C in a 5% CO2 atmosphere. Cells were passaged at 80–90% confluency using 0.05% trypsin–EDTA and the medium was changed every other day. Following this, the cells were trypsinized, suspended in medium and applied to a Millipore 96-well plate where they were cultured as monolayers at a density of 25,000 cells/well. The cells were incubated in a 37 °C/5% CO2 incubator to allow cell attachment and proliferation. Media was changed every 2–3 days for 21 days when cells reached 100% confluency. For Apical → Basolateral (A → B) permeability, 10 μM VZHE-039 was added to the apical (A) side and the amount of permeation determined on the basolateral (B) side; for Basolateral → Apical (B → A) permeability, 10 μM VZHE-039 was added to the B-side and the amount of permeation was determined on the A side. The A-side buffer contained 100 μM lucifer yellow dye, in Transport Buffer (1.98 g/L glucose in 10 mM HEPES, 1 × Hank’s Balanced Salt Solution) pH 7.4, and the B-side buffer used was the Transport Buffer at pH 7.4. Caco-2 cells were incubated with 10 μM VZHE0-39 in these buffers for 2 h. Ranitidine (low permeability), Warfarin (high permeability) and Talinolol (P-gp efflux control) were used as controls. […] Following centrifugation, the supernatant for donor and receiver side samples was analyzed by LC–MS/MS to determine peak area ratios.
(§5) The efflux ratio (Re) was calculated as: Re=PappB→A/PappA→B
On the technique in general: Caco-2 cells form a polarised layer with tight junctions and transporters.

Data set [1] can be described thus: Caco-2 bi-directional permeability. Type of data set: in vitro ADME, human. The note with it: human, Caco-2, pH 7.4; read-out: Efflux ratio (Re). As to the method: as §3, §4, §5

T1 sequence (P33261 whole entry): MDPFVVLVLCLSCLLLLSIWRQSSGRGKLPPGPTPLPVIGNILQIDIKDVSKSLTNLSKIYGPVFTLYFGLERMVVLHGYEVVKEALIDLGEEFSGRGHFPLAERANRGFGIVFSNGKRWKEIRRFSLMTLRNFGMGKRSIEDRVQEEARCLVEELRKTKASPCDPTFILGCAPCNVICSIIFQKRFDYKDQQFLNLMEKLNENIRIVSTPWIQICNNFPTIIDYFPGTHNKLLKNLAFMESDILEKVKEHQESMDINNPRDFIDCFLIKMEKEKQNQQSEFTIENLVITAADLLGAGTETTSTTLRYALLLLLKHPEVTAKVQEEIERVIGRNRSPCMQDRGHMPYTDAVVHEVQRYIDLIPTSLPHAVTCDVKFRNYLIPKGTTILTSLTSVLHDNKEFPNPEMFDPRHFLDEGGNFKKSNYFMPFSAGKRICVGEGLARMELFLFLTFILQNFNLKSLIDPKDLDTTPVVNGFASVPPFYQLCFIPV

On to `O=Cc1c(O)cccc1OCc1cccc(CO)n1` [VZHE-039, 2-((6-(Hydroxymethyl)pyridin-2-yl)methoxy)-6-hydroxybenzaldehyde], for which the IC50 – broadly, the concentration that gives 50% inhibition – is above 100 µM against CYP2C19; above 100 µM at CYP3A4 (substrate Midazolam); 95 µM against CYP3A4 (substrate Testosterone); above 100 µM on CYP2C9; above 100 µM against CYP2C8; above 100 µM against CYP2D6. Besides, in the data set on Caco-2 cell monolayers (10 μM), the “Permeability (in words)” value was “high in vitro GI permeability”. Moreover, in the data set with Caco-2 cell monolayers, the “Efflux transporter (P-gp) substrate (in words)” value was “not an efflux transporter (P-gp) substrate”. The efflux ratio at 2 h, 10 µM in data set [1] turned out to be 0.85.

These data come from article PMC7679387, “VZHE-039, a novel antisickling agent that prevents erythrocyte sickling under both hypoxic and anoxic conditions” (Scientific Reports, 2020).
